Experimental data taken from patent US20040204488A1, “S-[2-[(1-Iminoethyl)amino]ethyl]-2-methyl-L-cysteine maleate crystalline salt” (priority 2003, published 2004).

Assays:
Assay type in all cases: physicochemical
Moisture sorption = conditions: 90% R.H. and 25° C.
Source text: The novel salt is characterized by some or all of the following physical measurements: elemental analysis (such as by combustion analysis), melting point and heat of fusion (differential scanning calorimetry and thermogravimetric analysis), refractive indices (polarized light microscopy), x-ray powder diffraction pattern, moisture sorption (for example, DVS moisture balance) and vibrational signature (Raman spectrum).
FIG. 12 is a plot of a moisture sorption study of S-[2-[(1-Iminoethyl)amino]ethyl]-2-methyl-L-cysteine maleate.

physchem [1] = conditions: water
[2] = Solution stability of anion-exchange titration samples by HPLC (Example 8); conditions: fractions of resin titration
Experimental: (§1) Cation exchange column cuts containing approximately 0.9 g of S-[2-[(1-Iminoethyl)amino]ethyl]-2-methyl-L-cysteine di-hydrochloride in 142 ml HCl/water solution, were concentrated on a rotary evaporator at 60° C. to an oil. To the oil, diluted to 60 ml with deionized water, was added aliquots of 0.5 g of washed anion exchange resin while stirring. At five minutes after each aliquot of resin was added, the solution pH was measured and a sample removed through a syringe filter. A total of 9 g of anion exchange resin was added. The final pH was 10.8. The resin was removed by filtration and the filtrate was concentrated to an oil by rotary evaporation at 60° C.; no solids formed. The starting material, final filtrate and all intermediate samples were assayed by HPLC and ion chromatography for chloride.
3.3 g a sample containing about 1 g of S-[2-[(1-Iminoethyl)amino]ethyl]-2-methyl-L-cysteine di-hydrochloride was diluted to 20 g. Aliquots of prewashed Amberlite IRA400 (OH) resin was added to the solution and samples were periodically withdrawn through a syringe filter. […] The starting materials, intermediate samples and final filtrate were analyzed. […] Samples were drawn at pH of 8.13 and 1.63 and analyzed by HPLC.
In the repeat of the above experiment, the resulting samples were analyzed by HPLC. […]

physchem [3] = conditions: pKa of amidine ion
Source text: The parent S-[2-[(1-Iminoethyl)amino]ethyl]-2-methyl-L-cysteine molecule has 3 ionizable groups and can exist in 4 ionization states.
At low pH, the molecule exists as a +2 charged free acid, with the carboxylic acid, amine and amidine moieties protonated. This is the ionization state for the dihydrochloride salt. The initial lots of S-[2-[(1-Iminoethyl)amino]ethyl]-2-methyl-L-cysteine (dihydrochloride) contained around 0.3 eq of excess HCl.
As the pH is increased, the carboxylic acid group is the first group to deprotonate, and this produces a net charge on the molecule of +1. If the pH increase is generated by addition of sodium hydroxide to S-[2-[(1-Iminoethyl)amino]ethyl]-2-methyl-L-cysteine, the sodium dihydrochloride salt is formed. If the increase in pH is due to removal of chloride ions by anion exchange processing, the product is the monohydrochloride salt with no sodium.
A positive charge still resides on the amidine, and a negative charge still resides on the carboxyl group. If such material is made by the addition of sodium hydroxide to the dihydrochloride, the resulting product is the monohydrochloro sodium salt, mixed with one equivalent of sodium chloride. The material prepared by the anion exchange resin approach is the free zwitterion.
Further increases in pH lead to deprotonation of the amidine ion (pKa ˜12.5). […]

[4] = Pseudo-titration in water with IRA-400(OH) anion exchange resin (pH vs resin added)
Experimental: 60 g of Amberlite IRA400 (OH) resin was prewashed with 4.7 percent (by weight) ammonium hydroxide (50 ml of 28 percent ammonium hydroxide, 250 ml deionized water), followed by extensive washing with deionized water. The final conductivity was 6.1 μS.
as §1
The diamond (solid line) is pH and square (dashed line) is S-[2-[(1-Iminoethyl)amino]ethyl]-2-methyl-L-cysteine (percent initial, by ion chromatography). […] The diamond (solid line) is pH and triangle (broken line) is chloride (by ion chromatography).
These curves are not true titration curves since samples were withdrawn during the progress of the reaction, and since true equilibrium was not attained before the increments of resin were added. Nevertheless, the graphs of FIG. 2 and FIG. 3 illustrate the expected trends. As resin is added to the S-[2-[(1-Iminoethyl)amino]ethyl]-2-methyl-L-cysteine solution the pH rises with change in slope around pH's of 2, 9 and 11. The pH's of slower rise are representative of the pK's of the carboxylic acid, amine and amidine functional groups, respectively. Above a pH of 10, the S-[2-[(1-Iminoethyl)amino]ethyl]-2-methyl-L-cysteine concentration in solution decreases. At this point, the S-[2-[(1-Iminoethyl)amino]ethyl]-2-methyl-L-cysteine is gaining a net negative charge and is binding to the resin. […]

water absorbed by weight (Moisture sorption)	solubility (physchem [1])	degradation of titration fractions by HPLC [2]	pKa (physchem [3])	pH of slower rise representative of pK of amidine group [4]	pH of slower rise representative of pK of amine group [4]	pH of slower rise representative of pK of carboxylic acid group [4]	Compound
less than one percent	> 230 mg/mL						CC(=N)NCCSC[C@](C)(N)C(=O)O.O=C(O)/C=C\C(=O)O [S-[2-[(1-Iminoethyl)amino]ethyl]-2-methyl-L-cysteine maleate]
		no degradation	~12.5	~11	~9	~2	CC(=N)NCCSC[C@](C)(N)C(=O)O [S-[2-[(1-Iminoethyl)amino]ethyl]-2-methyl-L-cysteine]
